Read-outs that look alike come from different tables or passages of the source.
What was measured:
[1] = Liver microsomes stability, rat; format: in vitro ADME; settings: for half-life at 2 μM / microsomal CLint at 2 μM / CLint scaled at 2 μM: male; for CLint scaled at 2 μM: read-out: Scaled-up CLint
Protocol: The objective of this study was to estimate in vitro metabolic stability of exemplary compounds of Formula (I) or a pharmaceutically acceptable salt, solvate, and/or prodrug thereof in pooled human, male rat, and male mouse liver microsomes. The concentrations of compounds in reaction systems were evaluated by LC-MS/MS for estimating the stability in pooled human, male rat, and male mouse liver microsomes. The in vitro intrinsic clearances of test compounds were determined as well.
A master solution in the “Incubation Plate” containing phosphate buffer, ultra-pure H2O, MgCl2 solution and liver microsomes was made according to Table 33. The mixture was pre-warmed at 37° C. water bath for 5 minutes.
40 μL of 10 mM nicotinamide adenine dinucleotide phosphate (NADPH) solution was added to each well. The final concentration of NADPH was 1 mM. The negative control samples were prepared by replacing NADPH with 40 μL of ultra-pure H2O. Samples were prepared in duplicate. Negative controls were prepared in singlet.
The reaction was started with the addition of 4 μL of 200 μM exemplary test compounds of the disclosure or control compounds to each master solution to get the final concentration of 2 μM. This study was performed in duplicate.
Aliquots of 50 μL were taken from the reaction solution at 0, 15, 30, 45, and 60 minutes. The reaction solutions were stopped by the addition of 4 volumes of cold methanol with IS (100 nM alprazolam, 200 nM imipramine, 200 nM labetalol, and 2 μM ketoprofen). Samples were centrifuged at 3,220 g for 40 minutes. Aliquot of 90 μL of the supernatant was mixed with 90 μL of ultra-pure H2O and then was used for LC-MS/MS analysis.
LC/MS analysis was performed for all samples from this study using a Shimadzu liquid chromatograph separation system equipped with degasser DGU-20A5R; solvent delivery unit LC-30AD; system controller SIL-30AC; column oven CTO-30A; CTC Analytics HTC PAL System. Mass spectrometric analysis was performed using a Triple Quad™ 5500 instrument.
All calculations were carried out using Microsoft Excel. Peak area ratios of test compound to internal standard (listed in the below table) were determined from extracted ion chromatograms.
All calculations were carried out using Microsoft Excel. Peak areas were determined from extracted ion chromatograms. The slope value, k, was determined by linear regression of the natural logarithm of the remaining percentage of the parent drug vs. incubation time curve.
The in vitro half-life (in vitro t1/2) was determined from the slope value:
Conversion of the in vitro t1/2 (min) into the in vitro intrinsic clearance (in vitro CLint, in μL/min/mg proteins) was done using the following equation (mean of duplicate determinations): […]
The objective of this study was to estimate in vitro metabolic stability of exemplary compounds of Formula (I) or a pharmaceutically acceptable salt, solvate and/or prodrug thereof in pooled human, male rat and male mouse liver microsomes. The concentrations of compounds in reaction systems were evaluated by LC-MS/MS for estimating the stability in pooled human, male rat and male mouse liver microsomes. The in vitro intrinsic clearances of test compounds were determined as well.
A master solution in the “Incubation Plate” containing phosphate buffer, ultra-pure H2O, MgCl2 solution and liver microsomes was made according to Table 67. The mixture was pre-warmed at 37° C. water bath for 5 minutes.
40 μL of 10 mM NADPH solution was added to each well. The final concentration of NADPH was 1 mM. The negative control samples were prepared by replacing NADPH with 40 μL of ultra-pure H2O. Samples were prepared in duplicate. Negative controls were prepared in singlet
Aliquots of 50 μL were taken from the reaction solution at 0, 15, 30, 45 and 60 minutes. The reaction solutions were stopped by the addition of 4 volumes of cold methanol with IS (100 nM alprazolam, 200 nM imipramine, 200 nM labetalol and 2 μM ketoprofen). […]

human 5-HT2B receptor = human 5-HT2B receptor (Homo sapiens, UniProt P41595); test: Human 5-HT2B positive allosteric modulator (PAM) assay; format: cell-based; parameters: expressed in transfected cells; host or cells: HEK293; settings: for Emax (% of serotonin): PAM mode, agonist at EC20, relative to maximum response of serotonin
Protocol: Compound potency (EC50) and efficacy (Max response) against the human 5-HT2B receptor in stably transfected HEK293 cells were determined in a GPCR cell-based assay.
For Positive Allosteric Modulator determination, cells were pre-incubated with sample followed by EC20 addition. Intermediate dilution of sample stocks were performed to generate 5× samples in assay buffer. 5 μL of 5× samples were added to cells and incubated at 37° C. for 10 mins. 5 μL of agonist at 6×EC20 concentration was added and cells were incubated at 37° C. for 120 mins. Final assay vehicle concentration was 1%. The results are expressed as percent efficacy relative to the maximum response of the control ligand (serotonin) in Table 14.
Compound potency (EC50) and efficacy (Max response) against the human 5-HT2B receptor in stably transfected HEK293 cells was determined in a GPCR cell-based assay.
For Positive Allosteric Modulator determination, cells were pre-incubated with sample followed by EC20 addition. Intermediate dilution of sample stocks was performed to generate 5× samples in assay buffer. 5 μL of 5× samples were added to cells and incubated at 37° C. for 10 mins. 5 μL of agonist at 6×EC20 concentration was added and the cells were incubated at 37° C. for 120 mins. The final assay vehicle concentration was 1%. The results are expressed as percent efficacy relative to the maximum response of the control ligand (serotonin) in Table 64.

[2] = Plasma protein binding by equilibrium dialysis, dog; format: in vitro ADME; settings: for recovery at 6 h, 1 µM / fraction unbound at 6 h, 1 μM: Beagle; for recovery at 6 h, 1 µM: dog; for fraction unbound at 6 h, 1 μM: read-out: % Bound (converted)
Protocol: The final concentration of compound was 1 μM. The final concentration of DMSO was 0.5%. Ketoconazole was used as positive control in the assay.
The assay was performed in duplicate.
All calculations were carried out using Microsoft Excel. […] The percentages of bound compound were calculated as follows: […]
Ketoconazole was used as positive control in the assay.

[3] = rat liver microsomes, 2 μM compound, 0.5 mg/mL microsomes
[4] = rat liver microsomes, With Cofactors, 0 min
[5] = rat liver microsomes, With Cofactors, 30 min
[6] = rat liver microsomes, With Cofactors, 60 min
[7] = rat liver microsomes, Without Cofactors, 0 min
[8] = rat liver microsomes, Without Cofactors, 30 min
[9] = rat liver microsomes, Without Cofactors, 60 min
[10] = PAM mode: pre-incubation with sample, then agonist at EC20, HEK293 cells, read-out: EC50
[11] = dog plasma, equilibrium dialysis, 37° C., 6 hours
[12] = Rat liver microsomes, 2 μM, 0.5 mg/mL, NADPH

Sequence of human 5-HT2B receptor (P41595 whole entry): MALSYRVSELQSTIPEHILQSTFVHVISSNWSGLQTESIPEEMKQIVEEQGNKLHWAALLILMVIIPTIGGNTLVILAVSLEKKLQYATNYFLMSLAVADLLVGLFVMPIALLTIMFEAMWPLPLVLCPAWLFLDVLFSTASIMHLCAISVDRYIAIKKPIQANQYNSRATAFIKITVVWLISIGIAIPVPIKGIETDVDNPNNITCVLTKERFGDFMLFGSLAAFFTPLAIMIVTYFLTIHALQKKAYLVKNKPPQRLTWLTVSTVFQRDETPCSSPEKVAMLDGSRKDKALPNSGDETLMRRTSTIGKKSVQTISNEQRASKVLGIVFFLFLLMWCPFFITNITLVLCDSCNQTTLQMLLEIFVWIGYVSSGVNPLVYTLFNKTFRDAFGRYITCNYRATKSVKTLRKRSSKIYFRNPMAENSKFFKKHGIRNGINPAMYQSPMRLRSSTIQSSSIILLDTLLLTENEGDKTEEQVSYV

[2H]C([2H])(c1c[nH]c2ccc(OCCCCCN3C(=O)c4ccccc4C3=O)cc12)[C@H]1CCCN1C([2H])([2H])[2H] [(R) I-245, (R)-2-(5-((3-((1-(Methyl-d3)pyrrolidin-2-yl)methyl-d2)-1H-indol-5-yl)oxy)pentyl)isoindoline-1,3-dione]
half-life at 2 μM [1, 3]: < 4.51 min | microsomal CLint at 2 μM [1, 3]: > 307 µL/min/mg | CLint scaled at 2 μM ([1]; rat liver microsomes): > 550 mL/min/kg | Predicted hepatic CL ([1]; rat liver microsomes): >50.17 mL/min/kg | Remaining Percentage [1, 4]: 100.00% | Remaining Percentage [1, 5]: 0.62% | Remaining Percentage [1, 6]: 0.00% | Remaining Percentage [1, 7]: 100.00% | Remaining Percentage [1, 8]: 95.83% | Remaining Percentage [1, 9]: 94.10% | Emax (% of serotonin) (human 5-HT2B receptor; HEK293 cells): 0 % of serotonin | EC50 (human 5-HT2B receptor; [10]): > 3.33 µM

[2H]C([2H])(c1c[nH]c2ccc(OCCCCCN3C(=O)[C@H]4CCCC[C@H]4C3=O)cc12)[C@H]1CCCN1C([2H])([2H])[2H] [Cis (R) I-248, 2-(5-((3-(((R)-1-(Methyl-d3)pyrrolidin-2-yl)methyl-d2)-1H-indol-5-yl)oxy)pentyl)hexahydro-1H-isoindole-1,3(2H)-dione]
Emax (% of serotonin) (human 5-HT2B receptor; HEK293 cells): 7.97 % of serotonin | EC50 (human 5-HT2B receptor; [10]): > 10 µM

COCCN1CCC[C@@H]1Cc1c[nH]c2ccc(OC)cc12 [(R) I-98, (R)-5-Methoxy-3-((1-(2-methoxyethyl)pyrrolidin-2-yl)methyl)-1H-indole]
recovery at 6 h, 1 µM [2, 11]: 104% | fraction unbound at 6 h, 1 μM [2, 11]: 0.157 | % Remaining @ 6 hours ([2]; dog plasma, 6 hours): 110.92% | half-life at 2 μM [1, 3]: 10 min | microsomal CLint at 2 μM [1, 3]: 138 µL/min/mg | CLint scaled at 2 μM ([1]; rat liver microsomes): 248 mL/min/kg | Predicted hepatic CL ([1]; rat liver microsomes): 45.13 mL/min/kg | Remaining Percentage [1, 5]: 100.00% | Remaining Percentage [1, 6]: 14.43% | Remaining Percentage [1, 8]: 100.00% | Remaining Percentage [1, 9]: 103.23% | Emax (% of serotonin) (human 5-HT2B receptor; HEK293 cells): 0 % of serotonin | EC50 (human 5-HT2B receptor; [10]): > 10 µM

CSc1ccc2[nH]cc(C[C@H]3CCCN3C)c2c1 [(R) I-1, (R)-3-((1-Methylpyrrolidin-2-yl)methyl)-5-(methylthio)-1H-indole]
recovery at 6 h, 1 µM ([2]; Dog plasma, 1 μM, equilibrium dialysis 6 hours): 92.9% | fraction unbound at 6 h, 1 μM ([2]; Dog plasma, 1 μM, equilibrium dialysis 6 hours, 37° C.): 0.174 | % Remaining @ 6 hours ([2]; Dog plasma, 1 μM, 6 hours, 37° C.): 95.50% | Predicted hepatic CL ([1]; Rat liver microsomes): 44.80 mL/min/kg | Remaining Percentage (%) 0 min ([1]; Rat liver microsomes, With Cofactors, 0 min): 100.00% | Remaining Percentage (%) 30 min ([1]; Rat liver microsomes, With Cofactors, 30 min): 13.67% | Remaining Percentage (%) 60 min ([1]; Rat liver microsomes, With Cofactors, 60 min): 0.44% | Remaining Percentage (%) 0 min ([1]; Rat liver microsomes, Without Cofactors, 0 min): 100.00% | Remaining Percentage (%) 30 min ([1]; Rat liver microsomes, Without Cofactors, 30 min): 93.44% | Remaining Percentage (%) 60 min ([1]; Rat liver microsomes, Without Cofactors, 60 min): 95.17% | half-life at 2 μM [1, 12]: 10.4 min | microsomal CLint at 2 μM [1, 12]: 133 µL/min/mg | CLint scaled at 2 μM ([1]; Rat liver microsomes): 238 mL/min/kg | EC50 (human 5-HT2B receptor): > 10 µM | Emax (% of serotonin) (human 5-HT2B receptor; HEK293 cells): 0 % of serotonin

[2H]C([2H])(c1c[nH]c2ccc(OCCCCCN3C(=O)C4CCCCC4C3=O)cc12)[C@H]1CCCN1C([2H])([2H])[2H] (mixture of isomers) [Rac (R) I-248]
half-life at 2 μM [1, 3]: < 4.51 min | microsomal CLint at 2 μM [1, 3]: > 307 µL/min/mg | CLint scaled at 2 μM ([1]; rat liver microsomes): > 550 mL/min/kg | Predicted hepatic CL ([1]; rat liver microsomes): >50.17 mL/min/kg | Remaining Percentage [1, 4]: 100.00% | Remaining Percentage [1, 5]: 0.95% | Remaining Percentage [1, 6]: 0.19% | Remaining Percentage [1, 7]: 100.00% | Remaining Percentage [1, 8]: 94.04% | Remaining Percentage [1, 9]: 94.04%

[2H]C([2H])(c1c[nH]c2ccc(OCCCCN3C(=O)c4ccccc4C3=O)cc12)[C@H]1CCCN1C([2H])([2H])[2H] [(R) I-244, (R)-2-(4-((3-((1-(Methyl-d3)pyrrolidin-2-yl)methyl-d2)-1H-indol-5-yl)oxy)butyl)isoindoline-1,3-dione]
recovery at 6 h, 1 µM [2, 11]: 94.6% | fraction unbound at 6 h, 1 μM [2, 11]: 0.0281 | % Remaining @ 6 hours ([2]; dog plasma, 6 hours): 94.07% | half-life at 2 μM [1, 3]: 6.89 min | microsomal CLint at 2 μM [1, 3]: 201 µL/min/mg | CLint scaled at 2 μM ([1]; rat liver microsomes): 360 mL/min/kg | Predicted hepatic CL ([1]; rat liver microsomes): 47.87 mL/min/kg | Remaining Percentage [1, 4]: 100.00% | Remaining Percentage [1, 5]: 4.90% | Remaining Percentage [1, 6]: 0.57% | Remaining Percentage [1, 7]: 100.00% | Remaining Percentage [1, 8]: 94.87% | Remaining Percentage [1, 9]: 87.40% | Emax (% of serotonin) (human 5-HT2B receptor; HEK293 cells): 26.89 % of serotonin | EC50 (human 5-HT2B receptor; [10]): 0.0974 µM

Reference: US12606543B2, “Indole derivatives as serotonergic agents useful for the treatment of disorders related thereto” (priority 2023, dated 2026)
